The results in this text go back to patent US20220152117A1, “METHODS OF PROMOTING CELLULAR MATURATION WITH AMPK ACTIVATORS” (UNIVERSITY OF WASHINGTON, priority 2019, published 2022).

“Also recorded” adds a separate entry of the source.

Common to all, as to assay type: cell-based, human
The test system of test [1] is hPSC-CMs. As to the kind of experiment: Mitochondrial oxidation of glucose, Seahorse XF96 maximum respiration capacity. To be noted: AICAR treated vs control. The method, then:
The Seahorse XF96 extracellular flux Analyzer™ was used to assess mitochondria function with glucose as substrate. Cell preparation and treatment for this assay were the same as the palmitate assay. On the assay day, culture medium was changed to base media (unbuffered DMEM, Sigma D5030, supplemented with 2 mM glutamine, 25 mM glucose, 1 mM pyruvate) 1 hour before the assay and for the duration of the measurement. Selective inhibitors were injected during the measurements to achieve final concentrations of oligomycin at 2.5 μM, FCCP at 1 μM, rotenone at 2.5 μM, and antimycin A at 2.5 μM. The OCR values were further normalized to the number of cells present in each well, quantified by Hoechst staining. Maximal OCR was the OCR difference between uncoupler FCCP and ATPase inhibitor oligomycin. Due to variations in the absolute magnitude of OCR measurements in different experiments, the relative AICAR treated/untreated control levels were used to compare and summarize independent biological replicates (N=6).

Test [2] relates to hPSC-CMs. As to the kind of experiment: Electron microscopy and point counting of relative mitochondrial volume. Conditions: after AICAR treatment; control 0.068±0.006. The method, then:
Adherent cells in tissue culture dishes were fixed for transmission electron microscopy in half-strength Karnovsky's fixative (2.0% paraformaldehyde, 2.5% glutaraldehyde, 0.1M phosphate buffer, pH 7.4) overnight. The cells were then washed in 0.1M phosphate buffer two times (5 minutes each) and post-fixed in 1.0% OsO4 in 0.1M phosphate buffer. Cells were rinsed twice (5 minutes each) then dehydrated in […], 70% and 90% alcohol, 2 minutes each, then in 100% alcohol twice (5 minutes each). Cells were embedded in Polybed 812 Resin™ (Ted Pella®, Redding, Calif.) by first infiltrating with a mixture of 50% alcohol/50% polybed for 1 hour and then pure polybed for 3 hours. Beem capsules filled with fresh resin were inverted over areas of cells. Polymerization procedure was performed for 24 hours at 65° C. Removal of beem capsules was achieved by placing plates in boiling water then gently peeling the capsule containing the polymerized resin and cells away from the plastic plate. Sections for light and transmission electron microscopy were cut using a Reichert Ultracut E Microtome™. […] The relative mitochondrial volume was calculated by point counting, in which 20 horizontal and 20 perpendicular lines were drawn in the images and the crosspoints that overlapped with mitochondria was counted and then divided by the total points.

Test [3] deals with hPSC-CMs. As to the kind of experiment: Immunocytochemistry, imaging and morphological analysis (cell size, circularity index). The method, then: Cells were fixed in 4% paraformaldehyde for 10 min followed by PBS wash. The fixed cells were blocked with 1.5% normal goat serum for 1 hour at room temperature and incubated overnight at 4° C. with primary antibodies. Mouse anti-α-actinin (Sigma) was used. The samples were rinsed with PBS and incubated with a secondary antibody. Samples subjected to F-actin staining were incubated with TRITC-labeled phalloidin (Sigma) for 5 min at room temperature. Nuclei were stained with Hoechst 33342. Fluorescent images were acquired using a Zeiss AxioCam™ mounted on a Zeiss AxioObserver Microscope™, and confocal images were processed and quantified using NIS Elements. Each cell was analyzed for cell size and circularity index.

Test [4] deals with cardiomyocytes from ARVD/C hiPSCs. As to the kind of experiment: TUNEL cell viability assay, cardiomyocytes from mutant PKP2 (ARVD/C) hiPSCs. Conditions: two weeks treatment, TUNEL with α-actinin co-stain. As to the method: The normal and mutant Plakophilin 2 (PKP2) cells were generated as described previously^37. Induced pluripotent cells were cultured with E8 medium in Matrigel® coated plates. Cardiomyocytes were obtained using a protocol based on Lian et al^38 that involves Wnt agonist CHIR 99021 in the early stages of differentiation followed by the Wnt antagonist IWP2 under monolayer condition. Before Day 7, cells were cultured in RPMI plus B27 without insulin while on Day 7 and afterwards, EB media (KO-DMEM with 2% FBS, 1 mM NEAAs, 1× GlutaMAX, 1 mM mercaptoethanol, and penicillin/streptomycin) was used. At 30 days of differentiation, beating EBs were treated with three factors (3F) (50 μg/ml insulin, 0.5 μM dexamethasone, and 0.25 mM IBMX) or five factors (5F) (3F plus PPAR-γ agonists 5 μM rosiglitazone and 200 μM indomethacin) media as described earlier or treated with 1 mM AICAR or AICAR plus rosiglitazone and indomethacin for two weeks. TUNEL staining with In Situ Cell Death Detection Kit TMR Red™ (Roche®) was used to assess cell viability after conducting different treatment. TUNEL staining was co-stained with anti-α-actinin antibody so that cardiomyocyte-specific apoptosis could be assessed.

Test [5] relates to hiPSC-derived neurons. As to the kind of experiment: mtDNA:nDNA ratio by quantitative PCR in neurons. To be noted: two weeks of treatment with AICAR every third day.

`NC(=O)c1ncn([C@@H]2O[C@H](CO)[C@@H](O)[C@H]2O)c1N` [AICAR, 5-amino-4-imidazolecarboxamide riboside-1-β-D-ribofuranoside]: the “maximum mitochondrial respiration capacity” value in test [1] is “significantly increased”. In addition, the mitochondrial volume fraction in test [2] was 0.119±0.013. For the same molecule, in test [3] (AICAR-treated hPSC-CMs, control 0.51±0.01), the circularity index worked out at 0.40±0.02. The cell area in test [3] (AICAR-treated hiPSC-CMs, control 1141±40) came out at 2321±120 μm^2. Further, the “apoptosis / cell death in cardiomyocytes from ARVD/C (mutant PKP2) hiPSCs” value in test [4] was “induced significant apoptosis; also recorded: induced significant cell death”. Also, the “mtDNA/nDNA ratio in neurons” value in test [5] is “increase”.
